According to US20210121493A1, “METHODS FOR TREATING LIVER DISEASES” (Cedars-Sinai Medical Center, priority 2017, published 2021):
Where “and” joins values, the source holds several entries; their conditions need not be identical. Equal values may be shown once.

Key:
[1] = tested on: MzChA-1 (cholangiocarcinoma) cells or HepG2 cells; assay: xenograft mice models, tumor volume; format: in vivo; details: SAMe 100 mg/kg/day orally
Method: Mice were injected with MzChA-1 (cholangiocarcinoma) cells or HepG2 (immortalized cell line consisting of human liver carcinoma cells) cells. In mice treated with OCA, 30/mg/kg/day of OCA was administered orally. In mice treated with SAMe, 100 mg/kg/day was administered orally.

HepG2 cell line = assay: Growth of HepG2 cells by BrdU incorporation; format: cell-based, human
Method: HepG2 cells were treated with 100 μM SAMe, 10 μM OCA individually or combined for 24 hours. Growth was determined using BrdU incorporation. SAMe was mixed in saline and OCA was mixed in DMSO (0.1% final), which yielded the same values. As shown in Table 1 and FIG. 2, while OCA alone induced growth of the cancer cell line, SAMe inhibited growth of the cancer cell line even in the presence of OCA. SAMe, OCA and SAMe+OCA were 58.65%, 124.05% and 89.5%, respectively, of their respective controls.
(§1) HepG2 (immortalized cell line consisting of human liver carcinoma cells) cells were treated with 100 μM SAMe, 10 nM GW4064 individually or combined for 24 hours. Growth was determined using BrdU incorporation. SAMe was mixed in saline and GW4064 was mixed in DMSO (0.1% final), which yielded the same values. As shown in Table 2 and FIG. 3, while GW4064 alone induced growth of the cancer cell line, SAMe inhibited growth of the cancer cell line even in the presence of GW4064. SAMe, GW4064 and SAMe+GW4064 were 75.52%, 155.70% and 116.97%, respectively, of their respective controls.
as §1, with “Tropifexor” for “GW4064”, “Tropifexor.” for “GW4064.”, “SAMe+Tropifexor” for “SAMe+GW4064”, “151.04%” for “155.70%”, “114.77%,” for “116.97%,”

MAFG = assay: expression of the oncogene MAFG
[2] = HepG2, 100 μM SAMe in saline, 24 hours
[3] = HepG2, 100 μM SAMe, 24 hours (Example 2)
[4] = HepG2, 10 nM Tropifexor, 24 hours
[5] = HepG2, 10 nM Tropifexor, 24 hours, listed as Tropi
[6] = HepG2, 10 μM OCA in DMSO, 24 hours

C[S+](CC[C@H](N)C(=O)O)C[C@H]1O[C@@H](n2cnc3c(N)ncnc32)[C@H](O)[C@@H]1O (stereo partly drawn) [SAMe, S-adenosylmethionine]
tumor volume versus control group [1]: lower than the control group | BrdU incorporation, Ave (HepG2 cell line; [2]): 0.09 | BrdU incorporation, single readings (HepG2 cell line; [2]): 0.103 and 0.089 and 0.101 and 0.055 and 0.075 | BrdU Incorporation, % of respective controls (HepG2 cell line; HepG2, 100 μM SAMe, 24 hours (Example 1)): 58.65% | BrdU Incorporation OD540 nm, AVE (HepG2 cell line; [3]): 0.07287 | BrdU Incorporation OD540 nm, single readings (HepG2 cell line; [3]): 0.065 and 0.066 and 0.064 and 0.072 and 0.059 and 0.113 and 0.08 | BrdU Incorporation, % of respective controls (HepG2 cell line; [3]): 75.52% | effect on expression of MAFG (MAFG): decreases expression of MAFG

O=C(O)c1cc(F)c2nc(N3[C@@H]4CC[C@H]3C[C@@H](OCc3c(-c5ccccc5OC(F)(F)F)noc3C3CC3)C4)sc2c1 [Tropifexor]
BrdU Incorporation OD540 nm, AVE (HepG2 cell line; [4]): 0.1457 | BrdU Incorporation, % of respective controls (HepG2 cell line; [4]): 151.04% | BrdU Incorporation OD540 nm, single readings (HepG2 cell line; [5]): 0.153 and 0.121 and 0.134 and 0.125 and 0.105 and 0.173 and 0.202 | BrdU Incorporation, % of respective controls (HepG2 cell line; [5]): 151.0363%

CC(C)c1onc(-c2c(Cl)cccc2Cl)c1COc1ccc(/C=C/c2cccc(C(=O)O)c2)c(Cl)c1 [GW4064]
BrdU Incorporation OD540 nm, AVE (HepG2 cell line; HepG2, 10 nM GW4064, 24 hours): 0.1502 | BrdU Incorporation, % of respective controls (HepG2 cell line; HepG2, 10 nM GW4064, 24 hours): 155.70% | BrdU Incorporation, % of respective controls (HepG2 cell line; HepG2, 10 nM GW4064, 24 hours, listed as GW): 155.6995%

CC[C@H]1[C@@H](O)[C@@H]2[C@H](CC[C@]3(C)[C@@H]([C@H](C)CCC(=O)O)CC[C@@H]23)[C@@]2(C)CC[C@@H](O)C[C@@H]12 [OCA, 6α-ethyl-chenodeoxycholic acid]
BrdU incorporation, Ave (HepG2 cell line; [6]): 0.18 | BrdU incorporation, single readings (HepG2 cell line; [6]): 0.181 and 0.175 and 0.202 and 0.186 and 0.162 and 0.177 | BrdU Incorporation, % of respective controls (HepG2 cell line; HepG2, 10 μM OCA, 24 hours): 124.05%
